The numbers were not newly measured in patent US20170216217A1, “SPHERICAL MICROCAPSULES WITH ENHANCED ORAL BIOAVAILABILITY” (I2O Pharma Ltd., priority 2016, published 2017), which cites them from elsewhere.

`CN1CCN(C2=Nc3cc(Cl)ccc3Nc3ccccc32)CC1` [Clozapine]: the Oral bioavailability is reported as 27%.
